PubChem BioAssay (NCI)
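Compound exposure: 48 hours, 5 concentrations, 96-well plates. GI50 = concentration required for 50% inhibition of growth. TGI denotes the concentration required for complete inhibition of growth.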

How the values were obtained:
Assay in all cases: growth of human tumour cells (NCI), 48 h
IGROV1 ovarian = test system: IGROV1 ovarian
UACC-257 melanoma = test system: UACC-257 melanoma
OVCAR-8 ovarian = test system: OVCAR-8 ovarian
UACC-62 melanoma = test system: UACC-62 melanoma
MDA-MB-231 breast = test system: MDA-MB-231 breast
MDA-MB-435 = test system: MDA-MB-435
PC-3 prostate = test system: PC-3 prostate
786-0 renal = test system: 786-0 renal
CCRF-CEM leukemia = test system: CCRF-CEM leukemia
SF-295 CNS = test system: SF-295 CNS
U251 CNS = test system: U251 CNS
MOLT-4 leukemia = test system: MOLT-4 leukemia
SK-MEL-5 melanoma = test system: SK-MEL-5 melanoma
SK-MEL-28 melanoma = test system: SK-MEL-28 melanoma
SK-OV-3 ovarian = test system: SK-OV-3 ovarian
SF-539 CNS = test system: SF-539 CNS
NCI-H460 lung = test system: NCI-H460 lung
EKVX NSCLC = test system: EKVX NSCLC
TK-10 renal = test system: TK-10 renal
K-562 leukemia = test system: K-562 leukemia
SF-268 CNS = test system: SF-268 CNS
SK-MEL-2 melanoma = test system: SK-MEL-2 melanoma
NCI-H522 lung = test system: NCI-H522 lung
HT29 colon = test system: HT29 colon
A549 NSCLC = test system: A549 NSCLC
KM12 colon = test system: KM12 colon
SR leukemia = test system: SR leukemia
NCI-H226 lung = test system: NCI-H226 lung
NCI-H23 lung = test system: NCI-H23 lung
HOP-92 NSCLC = test system: HOP-92 NSCLC
SNB-19 CNS = test system: SNB-19 CNS
OVCAR-4 ovarian = test system: OVCAR-4 ovarian
A498 renal = test system: A498 renal
DU-145 prostate = test system: DU-145 prostate
SW-620 colon = test system: SW-620 colon
HCC-2998 colon = test system: HCC-2998 colon
CAKI-1 renal = test system: CAKI-1 renal
MDA-MB-468 breast = test system: MDA-MB-468 breast
MCF7 breast = test system: MCF7 breast
LOX IMVI melanoma = test system: LOX IMVI melanoma
BT-549 breast = test system: BT-549 breast
HS 578T breast = test system: HS 578T breast
UO-31 renal = test system: UO-31 renal
M14 melanoma = test system: M14 melanoma
RPMI-8226 leukemia = test system: RPMI-8226 leukemia
OVCAR-5 ovarian = test system: OVCAR-5 ovarian
T-47D breast = test system: T-47D breast
MALME-3M melanoma = test system: MALME-3M melanoma
ACHN renal = test system: ACHN renal
HOP-62 NSCLC = test system: HOP-62 NSCLC
HCT-116 colon = test system: HCT-116 colon
COLO 205 colon = test system: COLO 205 colon
RXF 393 renal = test system: RXF 393 renal
SN12C renal = test system: SN12C renal
HCT-15 colon = test system: HCT-15 colon
OVCAR-3 ovarian = test system: OVCAR-3 ovarian
HL-60(TB) leukemia = test system: HL-60(TB) leukemia

Structure (SMILES): Clc1ccccc1Nc1nnc(-c2c[nH]c3ccccc23)o1
- GI50 (IGROV1 ovarian): 0.429 µM
- TGI (IGROV1 ovarian): 33.5 µM
- GI50 (UACC-257 melanoma): 14.1 µM
- TGI (UACC-257 melanoma): 88.7 µM
- GI50 (OVCAR-8 ovarian): 1.6 µM
- TGI (OVCAR-8 ovarian): 18.1 µM
- GI50 (UACC-62 melanoma): 0.402 µM
- TGI (UACC-62 melanoma): 17.1 µM
- GI50 (MDA-MB-231 breast): 2.18 µM
- TGI (MDA-MB-231 breast): 23.5 µM
- GI50 (MDA-MB-435): 0.233 µM
- TGI (MDA-MB-435): 0.778 µM
- GI50 (PC-3 prostate): 1.9 µM
- TGI (PC-3 prostate): 57.6 µM
- GI50 (786-0 renal): 9.52 µM
- TGI (786-0 renal): 28.1 µM
- GI50 (CCRF-CEM leukemia): 0.501 µM
- TGI (CCRF-CEM leukemia): 26.5 µM
- GI50 (SF-295 CNS): 0.316 µM
- TGI (SF-295 CNS): 10.2 µM
- GI50 (U251 CNS): 0.505 µM
- TGI (U251 CNS): 17.5 µM
- GI50 (MOLT-4 leukemia): 0.654 µM
- TGI (MOLT-4 leukemia): 23.2 µM
- GI50 (SK-MEL-5 melanoma): 0.966 µM
- TGI (SK-MEL-5 melanoma): 7.39 µM
- GI50 (SK-MEL-28 melanoma): 10.4 µM
- TGI (SK-MEL-28 melanoma): 27.3 µM
- GI50 (SK-OV-3 ovarian): 3.68 µM
- TGI (SK-OV-3 ovarian): 74.9 µM
- GI50 (SF-539 CNS): 0.708 µM
- TGI (SF-539 CNS): 3.24 µM
- GI50 (NCI-H460 lung): 0.787 µM
- TGI (NCI-H460 lung): 15.2 µM
- GI50 (EKVX NSCLC): 3.05 µM
- TGI (EKVX NSCLC): 77.7 µM
- GI50 (TK-10 renal): 8.09 µM
- TGI (TK-10 renal): > 100 µM
- GI50 (K-562 leukemia): 0.308 µM
- TGI (K-562 leukemia): > 100 µM
- GI50 (SF-268 CNS): 6.89 µM
- TGI (SF-268 CNS): 51.7 µM
- GI50 (SK-MEL-2 melanoma): 0.318 µM
- TGI (SK-MEL-2 melanoma): 1.06 µM
- GI50 (NCI-H522 lung): 0.305 µM
- TGI (NCI-H522 lung): 2.38 µM
- GI50 (HT29 colon): 0.353 µM
- TGI (HT29 colon): 10.3 µM
- GI50 (A549 NSCLC): 1.73 µM
- TGI (A549 NSCLC): > 100 µM
- GI50 (KM12 colon): 1.57 µM
- TGI (KM12 colon): 28.7 µM
- GI50 (SR leukemia): 0.387 µM
- TGI (SR leukemia): > 100 µM
- GI50 (NCI-H226 lung): 5.39 µM
- TGI (NCI-H226 lung): > 100 µM
- GI50 (NCI-H23 lung): 2 µM
- TGI (NCI-H23 lung): 17.1 µM
- GI50 (HOP-92 NSCLC): 11.5 µM
- TGI (HOP-92 NSCLC): 54.6 µM
- GI50 (SNB-19 CNS): 0.721 µM
- TGI (SNB-19 CNS): 31.5 µM
- GI50 (OVCAR-4 ovarian): 22.7 µM
- TGI (OVCAR-4 ovarian): > 100 µM
- GI50 (A498 renal): 18.8 µM
- TGI (A498 renal): 50.8 µM
- GI50 (DU-145 prostate): 2.78 µM
- TGI (DU-145 prostate): 56.9 µM
- GI50 (SW-620 colon): 0.479 µM
- TGI (SW-620 colon): 29.1 µM
- GI50 (HCC-2998 colon): 1.85 µM
- TGI (HCC-2998 colon): 14.2 µM
- GI50 (CAKI-1 renal): 0.647 µM
- TGI (CAKI-1 renal): 33.2 µM
- GI50 (MDA-MB-468 breast): 1.2 µM
- TGI (MDA-MB-468 breast): 4.9 µM
- GI50 (MCF7 breast): 0.583 µM
- TGI (MCF7 breast): 21.6 µM
- GI50 (LOX IMVI melanoma): 0.618 µM
- TGI (LOX IMVI melanoma): 19.8 µM
- GI50 (BT-549 breast): 2.27 µM
- TGI (BT-549 breast): 34.6 µM
- GI50 (HS 578T breast): 1.52 µM
- TGI (HS 578T breast): 20.6 µM
- GI50 (UO-31 renal): 1.82 µM
- TGI (UO-31 renal): 49.7 µM
- GI50 (M14 melanoma): 0.71 µM
- TGI (M14 melanoma): 20.2 µM
- GI50 (RPMI-8226 leukemia): 1.31 µM
- TGI (RPMI-8226 leukemia): > 100 µM
- GI50 (OVCAR-5 ovarian): 4.33 µM
- TGI (OVCAR-5 ovarian): 31.9 µM
- GI50 (T-47D breast): 4.1 µM
- TGI (T-47D breast): > 100 µM
- GI50 (MALME-3M melanoma): 0.498 µM
- TGI (MALME-3M melanoma): 20.1 µM
- GI50 (ACHN renal): 1.49 µM
- TGI (ACHN renal): 37.5 µM
- GI50 (HOP-62 NSCLC): 4.58 µM
- TGI (HOP-62 NSCLC): 63.5 µM
- GI50 (HCT-116 colon): 11.9 µM
- TGI (HCT-116 colon): 77.6 µM
- GI50 (COLO 205 colon): 0.867 µM
- TGI (COLO 205 colon): 11.7 µM
- GI50 (RXF 393 renal): 1.52 µM
- TGI (RXF 393 renal): 11.1 µM
- GI50 (SN12C renal): 0.93 µM
- TGI (SN12C renal): 21.7 µM
- GI50 (HCT-15 colon): 0.35 µM
- TGI (HCT-15 colon): 23.9 µM
- GI50 (OVCAR-3 ovarian): 0.43 µM
- TGI (OVCAR-3 ovarian): 15 µM
- GI50 (HL-60(TB) leukemia): 0.321 µM
- TGI (HL-60(TB) leukemia): 4.56 µM
